Target: T1, recombinant human CCR5 receptor (Homo sapiens, UniProt P51681)
T1 construct: expressed in transfected cells; host or cells: Chinese hamster ovary (CHO) cells; membranes
Experiment: Radioligand binding assay for inhibition of the binding of MIP-1α
Conditions: displacement of 0.1 nM iodinated MIP-1α; membranes of Chinese hamster ovary cells expressing CCR5
How it was run: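 Membranes from CHO cells expressing recombinant human CCR5 were incubated with 0.1 nM iodinated MIP-1α, scintillation proximity beads and compound at various concentrations. Bound radioligand was measured by scintillation counting.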

T1 sequence (P51681 whole entry): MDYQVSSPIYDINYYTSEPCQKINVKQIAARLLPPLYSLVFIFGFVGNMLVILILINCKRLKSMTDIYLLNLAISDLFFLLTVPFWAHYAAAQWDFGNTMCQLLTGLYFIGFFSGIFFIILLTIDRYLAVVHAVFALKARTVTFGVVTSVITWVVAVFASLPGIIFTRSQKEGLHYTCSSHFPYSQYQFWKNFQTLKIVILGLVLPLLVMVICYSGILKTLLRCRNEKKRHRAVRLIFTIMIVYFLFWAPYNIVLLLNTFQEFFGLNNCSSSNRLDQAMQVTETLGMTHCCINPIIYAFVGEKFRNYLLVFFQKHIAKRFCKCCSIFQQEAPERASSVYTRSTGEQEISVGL

For O=C(Nc1ccc(Cl)c(Cl)c1)N1CCN(C[C@@H]2CCCN(Cc3cc[nH]n3)C2)CC1 [Example 34, N-(3,4-dichlorophenyl)-4-{[(3S)-1-(1H-pyrazol-3-ylmethyl)-piperidin-3-yl]methyl}piperazine-1-carboxamide], the IC50 was less than 10 µM.
In the case of CCCC(C)N1CCN[C@@H](C(=O)N2CCN(C(=O)Nc3ccc(Cl)c(Cl)c3)CC2)C1 (stereo partly drawn) [Example 270, N-(3,4-dichlorophenyl)-4-{[(2R)-4-(1-methylbutyl)piperazin-2-yl]carbonyl}piperazine-1-carboxamide], the IC50 is reported as less than 10 µM.
In the case of Cc1ccc(NC(=O)N2CCN(C[C@@H]3CCCN(C4CC4)C3)CC2)cc1Cl [Example 110, N-(3-chloro-4-methylphenyl)-4-{[(3S)-1-cyclopropylpiperidin-3-yl]methyl}piperazine-1-carboxamide], the IC50 is reported as less than 10 µM.
In the case of O=C(Nc1ccc(Cl)c(Cl)c1)N1CCN(C(=O)C2CCN(C3CCC(O)(c4nccs4)CC3)C2)CC1 (stereo not drawn) [Example 148, N-(3,4-dichlorophenyl)-4-({1-[cis-4-hydroxy-4-(1,3-thiazol-2-yl)cyclohexyl]pyrrolidin-3-yl}carbonyl)piperazine-1-carboxamide], the IC50 is reported as less than 10 µM.
O=C(Nc1ccc(Br)cc1)N1CCN(C[C@@H]2CCCN(C3CC3)C2)CC1 [Example 108, N-(4-bromophenyl)-4-{[(3S)-1-cyclopropylpiperidin-3-yl]methyl}piperazine-1-carboxamide] gave an IC50 of less than 10 µM.
With O=C(Nc1ccc(Cl)c(Cl)c1)N1CCN(C(=O)[C@H]2CN(C3CCOCC3)CCN2)CC1 [Example 221, N-(3,4-dichlorophenyl)-4-{[(2R)-4-(tetrahydro-2H-pyran-4-yl)piperazin-2-yl]carbonyl}piperazine-1-carboxamide] the IC50 was less than 10 µM.
With O=C(Nc1ccccc1)N1CCN(C[C@@H]2CCCN(CCc3ccc(Cl)cc3)C2)CC1 [Example 249, 4-[[(3R)-1-[2-(4-chlorophenyl)ethyl]-3-piperidyl]methyl]-N-phenyl-piperazine-1-carboxamide] the IC50 was less than 10 µM.
With CC(C)N1CCN[C@@H](C(=O)N2CCN(C(=O)Nc3ccc(Cl)cc3)CC2)C1 [Example 215, N-(4-chlorophenyl)-4-{[(2R)-4-isopropylpiperazin-2-yl]carbonyl}piperazine-1-carboxamide] the IC50 was less than 10 µM.
For O=C(Nc1cccc(Cl)c1)N1CCN(C[C@@H]2CCCN(CCc3ccccc3)C2)CC1 [Example 180, N-(3-chlorophenyl)-4-{[(3R)-1-(2-phenylethyl)piperidin-3-yl]methyl} piperazine-1-carboxamide], the IC50 was less than 10 µM.

Reference: patent US8710224B2, “Heterocyclic compounds as CCR2B antagonists” (AstraZeneca AB, priority 2004, dated 2014)
